Data on three compounds can be found in patent publication US6663846B1, “Devices and methods for monitoring drug therapy compliance” (priority 1998, dated 2003).

The conditions of data set [1]: cited from earlier work.
Data set [2] is described as follows: Frequency-domain intensity decay (fluorescence lifetime) measurements. Format: physicochemical. Conditions: for decay time: Rh800 in 0.5% intralipid, Ru complex in PVA film. The protocol: Frequency domain intensity decay measurements were performed as described previously. Phase angles and modulation measurements at frequencies greater than 1.88 MHz were accomplished using the harmonic content of the picosecond pulses. The excitation was polarized vertically, and the emission detected without an emission polarizer. The re-emergent light was either observed directly, or through two cut-off filters (630 and 660 nm) to remove scattered light and/or attenuate the fluorophore emission relative to that of the long lived reference.
A long lifetime reference signal was provided by [Ru(bPY)2(dppz)](PF6)^2 in a polyvinyl alcohol (PVA) film, where bpy is 2,2′-bipyridine and dppz is dipyrido[3,2-a:2′,3′-cl]phenazine. Such metal-ligand complexes are known to display lifetimes from 100 ns to 13 (s. The intensity decay time of [Ru(bpy)2(dppz)](PF6)2 in the PVA film was near 800 ns (Table 1 as shown in FIG. 20).
The intensity decay data was analyzed in terms of the multi-exponential model [formula]
In this expression αi represents the pre-exponential factors associated with each lifetime τi. The fractional contribution of each decay time component to the steady state intensity is given by [formula]
The values of Σαi and Σfi are typically normalized to unity. The mean lifetime is given by [formula]
In the frequency-domain measurements the measured quantities are the phase shift of the emission […] and its modulation (m107) at the light modulation frequency ωi in radians/sec. The values of αi and τi are determined by non-linear least squares fitting and minimization of the goodness-of-fit parameter X^2R. [formula]
In this expression the subscript c refers to calculated values of φω and mω for assumed values of αi and τi and ν is the number of degrees of freedom. δω and δm represent the uncertainties in the measured values. In some cases we performed a global analysis of data measured at more than one fluorophore concentrations. In this case the sum in equation 3 extends over these multiple concentrations (k).
We examined the frequency-domain intensity decay of Rh800 and IcG in 0.5% intralipid. As the concentration of Rh800 increased the frequency response shifted to higher frequency (FIG. 5). […] In 0.5% intralipid the intensity decay of Rh800 becomes more complex. The data could be fit to a two decay time model. The individual decay times and the mean decay times decreased with increasing Rh800 concentrations (FIG. 6). Similar results are found for IcG, with the decay times and mean decay time decreasing with increasing IcG concentration (Table III, as shown in FIG. 22).

Data set [3] in a line: Emission spectra, front-face illumination, excitation at 600 nm. Type of data set: physicochemical. The settings on record: for emission peak: in 0.5% intralipid; for emission maximum: in water. The protocol:
All fluorescence measurements were performed using front-face illumination and detection, using the sample holder shown in FIG. 18. The incident light was redirected from the usual position using two mirrors. The position of the sample could be adjusted with a movable stage. The re-emergent light passed through one or more optical filters prior to reaching the destination.
The sample consisted of either a cuvette containing the intralipid, or a quartz slide covering the chicken muscle and skin (FIG. 19). Excitation at 600 nm was provided by the fundamental output of a rhodamine 6G dye laser. This dye laser was synchronously pumped by a mode-locked argon ion laser, and cavity dumped at 1.88 MHz.
For the present studies we used two fluorophores with ns decay times, Rh800 and IcG, and a long lifetime metal ligand complex. We refer to this long lifetime reference as the Ru complex (FIG. 1). All three fluorophores can be excited at 600 nm. In water Rh800 emits maximally near 706 nm, and IcG near 805 nm. […] The emission spectra of Rh800 and IcG in 0.5% intralipid is similar to those observed in water (FIG. 2).

The conditions of data set [4]: humans; cited from earlier work.

As for “Ruthenium bis-2,2′-bipyridine dipyridophenazine [Ru complex]”, the fluorescence in water entry in data set [1] is “essentially non-fluorescent in water”. This compound yielded a decay time in data set [2] of 834 ns. For the same compound, in data set [2] (polyvinyl alcohol film), the “intensity decay time in PVA film” value is listed as about 800 ns.
In data set [3], Rhodamine 800 [Rh800] had an emission peak of about 710 nm and an emission maximum of about 706 nm. The same compound came in with a decay time in data set [2] of 1.62 ns. Further, the intensity decay time in data set [2] (in water, no intralipid, single exponential) is on record as 0.686 ns.
In data set [3], `CC1(C)C(/C=C/C=C/C=C/C=C2\N(CCCCS(=O)(=O)O)c3ccc4ccccc4c3C2(C)C)=[N+](CCCCS(=O)(=O)[O-])c2ccc3ccccc3c21` [IcG, indocyanine green] showed an emission peak of about 820 nm and an emission maximum of about 805 nm. The clearance from circulation entry in data set [4] is reported as “rapidly cleared from circulation”.
